Source: PMC8101618, “Comparable Initial Engagement of Intracellular Signaling Pathways by Parathyroid Hormone Receptor Ligands Teriparatide, Abaloparatide, and Long‐Acting PTH” (JBMR Plus, 2021)
Where no end group is shown, it is not given here. TMR = tetramethyl-rhodamine

How the values were obtained:
[1] = target: T1, PTH1R (endogenous, Ocy454 cells) (Mus musculus, UniProt P41593); assay: intracellular cAMP in Ocy454 cells; type: cell-based, murine; conditions: IBMX (2mM), 30 min, room temperature, radioimmunoassay, repeated three times, Fig 3A, read-out: cAMP generation EC50
T1 construct: effects of distinct PTH1R ligands on endogenous receptors in Ocy454 cells; endogenous in cells; host or cells: Ocy454 cells (murine osteocyte-like line, subclone 6-9)
T1 sequence (P41593 27-591): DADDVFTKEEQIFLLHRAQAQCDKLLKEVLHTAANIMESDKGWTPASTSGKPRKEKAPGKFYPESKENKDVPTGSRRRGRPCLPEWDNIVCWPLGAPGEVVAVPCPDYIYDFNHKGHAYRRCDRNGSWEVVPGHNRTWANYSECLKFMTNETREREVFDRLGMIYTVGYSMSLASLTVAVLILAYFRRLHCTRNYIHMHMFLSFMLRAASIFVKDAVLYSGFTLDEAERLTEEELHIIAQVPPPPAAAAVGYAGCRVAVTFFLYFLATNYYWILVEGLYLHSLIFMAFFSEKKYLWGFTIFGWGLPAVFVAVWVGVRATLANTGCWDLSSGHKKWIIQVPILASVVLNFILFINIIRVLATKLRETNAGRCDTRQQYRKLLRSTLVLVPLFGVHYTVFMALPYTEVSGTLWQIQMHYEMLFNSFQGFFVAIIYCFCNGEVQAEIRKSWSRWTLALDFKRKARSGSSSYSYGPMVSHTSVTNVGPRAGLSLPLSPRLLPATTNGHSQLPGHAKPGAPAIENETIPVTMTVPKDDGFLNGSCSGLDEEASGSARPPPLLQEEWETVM
Protocol: Confluent Ocy454 cells in 96‐well plates were treated with a abaloparatide or a PTH analog at varying concentrations in a buffer of Hanks balanced salts solution (HBSS) containing 0.1% BSA and 3‐isobutyl‐1‐methylxanthine (IBMX) (2mM) for 30 min at room temperature. The buffer was then removed and the cells were lysed by placing the plate on a bed of powdered dry ice and adding 50 μL of 50mM HCl. After freezing and thawing, the lysates were diluted in water and then assessed for cAMP content by radioimmunoassay.
First, we assessed the effects of different PTH analogs on cAMP generation. For this, cells were treated with different concentrations of peptides in the presence of IBMX for 30 min at room temperature, followed by radioimmunoassay for cAMP.

[2] = test system: ratPTH1R; assay: internalization of TMR-labeled ligand-PTH1R complexes in GR-35 cells; type: cell-based, rat; conditions: TMR-labeled ligands (TMR at Lys13), 15 min, 21°C, HEK293 ratPTH1R/glosensor GR-35 cells, epifluorescent microscopy; 100nM (methods) or 10nM (results); repeated two times
Protocol: Internalization of ligand‐PTH1R complexes was assessed by fluorescent microscopy in stably transfected HEK293/ratPTH1R/glosensor (GR‐35) cells. The cells were cultured on glass coverslips in 24‐well plates to ~75% of confluency, and then treated with a tetramethylrhodamine (TMR)‐labeled PTH analog (100nM, TMR attached to Lys13) in HBSS containing 0.1% BSA (HB buffer) for 15 min at 21°C. The cells were then rinsed thrice with HB buffer, fixed with 4% formalin for 5 min, mounted with vector‐shield containing 4,6‐diamidino‐2‐phenylindole (DAPI) on a glass microscope slide, and viewed and digitally imaged using a Nikon epifluorescent microscope (Nikon, Tokyo, Japan) equipped with a charge‐coupled device (CCD) camera configured with SPOT imaging software (SPOT Imaging, Sterling Heights, MI, USA).
Next, we asked whether PTH analogs might have different effects on PTH1R activation‐dependent internalization. For this, HEK293 cells stably expressing a rat PTH1R cDNA (GR‐35 cells) were treated with tetramethyl‐rhodamine‐labeled versions of hPTH (1‐34), PTHrP, and abaloparatide (the TMR fluorophore is attached at the K13 position of each peptide). Cells were treated for 15 min at room temperature (21°C) at peptide doses of 10nM. After excess unbound peptide was washed away, cells were examined by epifluorescent microscopy.

[3] = test system: hPTH1R; assay: intracellular calcium (Fura2-AM) in HEK293/hPTH1R/glosensor (GP-2.3) cells; type: cell-based, human; conditions: 100nM; HEK293 cells stably expressing hPTH1R (GP-2.3); Fura2-AM ratiometric fluorescence 340/380 nm; 150 s after ligand addition; repeated two times
Protocol: Signaling via the iCa^++ pathway was assessed in stably transfected HEK‐HEK293/hPTH1R/glosensor (GP‐2.3) cells using the calcium‐sensitive fluorophore Fura2‐AM (Invitrogen, Life Tech. Grand Island, NY, USA).^( ^32 ^) Confluent cells in a black, 96‐well plate were preloaded with Fura2‐AM (5μM) for 45 min and then unloaded in buffer for 30 min. The plate was then processed using a Perkin Elmer Envision plate reader (Perkin Elmer, Waltham, MA, USA) to monitor fluorescence emission at a wavelength (λem) of 515 nm, upon sequential excitation at wavelengths (λex) of 340 nm and 380 nm. Data were recorded at 2‐s intervals for 10 s prior to, and for 150 s after ligand addition. The data at each time point were calculated as the ratio of the fluorescence signal obtained with excitation at 340 nm to that obtained with excitation at 380 nm.
(§1) First, we assessed the ability of distinct PTH1R peptide ligands (Fig. 1A ) to induce Gαq/PKC‐dependent increases in intracellular calcium in HEK293 cells stably expressing hPTH1R (GP‐2.3 cells). For this, cells were preloaded with the calcium indicator dye Fura2‐AM, and then treated with different PTH ligands at a concentration of 100nM. Intracellular calcium fluxes were measured by ratiometric fluorescence (excitation = 340 nm and 380 nm, emission = […]) over time.

[4] = test system: Gαq/phospholipase signaling; conditions: cited from earlier work
Protocol: as §1

Compound	EC50 [1] [pM]	ligand-PTH1R internalization [2]	other results
AVAEIQLMHQRAKWIQDARRRAFLHKLIAEIHTAEI [LA‐PTH]	562		
CC[C@H](C)[C@H](NC(=O)[C@H](CO)NC(=O)[C@H](CCCCN)NC(=O)CNC(=O)[C@H](CCCCN)NC(=O)[C@H](CC(=O)O)NC(=O)[C@H](Cc1cnc[nH]1)NC(=O)[C@H](CC(C)C)NC(=O)[C@H](CC(C)C)NC(=O)[C@H](CCC(N)=O)NC(=O)[C@H](Cc1cnc[nH]1)NC(=O)[C@H](CCC(=O)O)NC(=O)[C@H](CO)NC(=O)[C@@H](NC(=O)[C@H](C)N)C(C)C)C(=O)N[C@@H](CCC(N)=O)C(=O)N[C@@H](CC(=O)O)C(=O)N[C@@H](CC(C)C)C(=O)N[C@@H](CCCNC(=N)N)C(=O)N[C@@H](CCCNC(=N)N)C(=O)N[C@@H](CCCNC(=N)N)C(=O)N[C@@H](CCC(=O)O)C(=O)N[C@@H](CC(C)C)C(=O)N[C@@H](CC(C)C)C(=O)N[C@@H](CCC(=O)O)C(=O)N[C@@H](CCCCN)C(=O)N[C@@H](CC(C)C)C(=O)N[C@@H](CC(C)C)C(=O)NC(C)(C)C(=O)N[C@@H](CCCCN)C(=O)N[C@@H](CC(C)C)C(=O)N[C@@H](Cc1cnc[nH]1)C(=O)N[C@H](C(=O)N[C@@H](C)C(N)=O)[C@@H](C)O [abaloparatide]	589		
^TMRPTHrP (1‐36): Tetramethyl‐rhodamine (TMR)‐labeled version of PTHrP, TMR attached to Lys13		induced ligand‐PTH1R internalization	
^TMRPTHc35 (1‐35): Tetramethyl‐rhodamine (TMR)‐labeled version of PTH, TMR attached to Lys13 (SVSEIQLMHNLGK(TMR)HLNSMERVEWLRKKLQDVHNFV; UniProt P01270 32-66, looked up, fragment)		induced ligand‐PTH1R internalization	
Trp1‐PTH (1‐34): a PTH analog defective at activating Gαq/phospholipase signaling (WVSEIQLMHNLGKHLNSMERVEWLRKKLQDVHNF; Parathyroid hormone; UniProt P01270 32-65, looked up, variant S1W)			intracellular calcium release [3]: does not stimulate intracellular calcium; activation of Gαq/phospholipase signaling [4]: defective at activating Gαq/phospholipase signaling
